System: regulated mbIL15 TILs
Assay: ACZ regulation of IL15 expression and signaling, phospho-flow cytometry-based assay
Format: cell-based, human
Settings: 18 hours
Procedure: Pre-REP TILs were prepared similarly to the methods of Example 1-3 and 9, and unengineered and mbIL15 TIL generated accordingly as described in Examples 1-3 and 9. Engagement of the IL15 signaling pathway results in phosphorylation of signal transducers downstream, including the transcription factor protein STAT5 and ribosomal protein S6. […] Next, the regulated mbIL15 TILs were regulated for 18 hours in the presence of a range of concentrations of ACZ including 0.1, 1, 2.5, 5, 10, 25, 100 as well as vehicle control. The regulated mbIL15 TILs were then collected for staining and FACS analysis.
Briefly, cells were stained using antibodies for CD3, CD4, CD8, IL15 and a Live/Dead marker. Then cells were fixed in 2% formaldehyde (BD Cytofix) and permeabilized using a methanol-based buffer (BD Phospho Perm III Buffer) before staining with antibodies specific for phosphorylated STAT5 (Biolegend) and S6 (Cell Signaling Technology). Cells were acquired on the BD Symphony and analyzed using FlowJo software.
With increasing concentrations of ACZ expression of mbIL15 also increases, plateauing at around 10-25 μM of ACZ. FIG. 9A. […] FIGS. 9B-E and FIG. 10.

CC(=O)Nc1nnc(S(N)(=O)=O)s1 [ACZ, acetazolamide]
staining intensity of pSTAT5 and pS6 (0.1-100 μM ACZ, regulated mbIL15 TILs): increased with higher concentrations of ACZ
ACZ concentration at which mbIL15 expression plateaus (regulated mbIL15 TILs from four human donors): 10 to 25 µM

Reference: patent US20240108722A1, “TUMOR-INFILTRATING LYMPHOCYTES WITH MEMBRANE BOUND INTERLEUKIN 15 AND USES THEREOF” (OBSIDIAN THERAPEUTICS, INC., priority 2021, published 2024)
